Assay results reported in patent US8106155B2, “Test kit for determining process for determining antibiotics containing a beta-lactam ring in a biological fluid” (Neogen Corporation, priority 1998, dated 2012).

Key:
BlaR-CTD receptor [1] = target: T1, BlaR-CTD receptor (Bacillus licheniformis, UniProt P12287); test: 5-minute test: BlaR-CTD coupled to gold beads, membrane test device, milk; format: binding; settings: test carried out in 5 minutes, 47° C.; positive when 1st band less intense than 2nd band
T1 construct: uses the BlaR-CTD receptor coupled to gold beads
T1 sequence (P12287 354-601): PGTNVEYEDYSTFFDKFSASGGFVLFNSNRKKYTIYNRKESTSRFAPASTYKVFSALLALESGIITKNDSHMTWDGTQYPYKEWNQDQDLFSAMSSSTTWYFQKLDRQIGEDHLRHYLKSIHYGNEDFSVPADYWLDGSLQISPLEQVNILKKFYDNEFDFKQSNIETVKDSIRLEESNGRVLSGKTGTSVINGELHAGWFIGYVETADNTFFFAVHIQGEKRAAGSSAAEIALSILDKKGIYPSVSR
Procedure: (§1) This example illustrates the detection in milk of antibiotics containing a β-lactam ring, which are controlled by the health authorities. The test described in this example uses the BlaR-CTD receptor coupled to gold beads which serve as labelling agents, and uses a support in the form of a test device comprising a solid support to which membranes are attached.
6 samples of fresh milk containing 0; 2; 4; 6; 8 and 10 ppb of cloxacillin, respectively, are prepared. Each of these solutions is then analyzed in the following way.
(§2) A 200 μl aliquot sample of milk and 45.27 μl of solution prepared in Example 1.1.3 are taken and placed in a glass flask. This mixture is incubated for 3 minutes at 47° C. A test device is taken and placed vertically in the glass flask such that the first end of the test device is in contact with the mixture and such that the second end rests on the wall of the glass flask. The mixture is left to migrate on the test device, while incubating the assembly for 2 minutes at 47° C.
(§3) An intensity value ranging from 0 to 10 is attributed to the bands detected, the value 10 being given to the most intense band and the value 0 being given to the least intense band. According to this scale, a value of 6 is assigned to the reference band. The intensity of the signal observed in the first band is inversely proportional to the amount of cloxacillin present in the sample.
(§4) In this example, when the first band has an intesity less than that of the second band, the test is considered as being positive.

BlaR-CTD receptor [2] = target: T1, BlaR-CTD receptor; test: 9-minute test: BlaR-CTD coupled to gold beads, membrane test device, milk; format: binding; settings: 47° C.; for concentration detected in a sample of milk: test carried out in 9 minutes, positive when 1st band less intense than 2nd band; for Intensity 1st band: 9-minute test, scale 0 to 10, reference band 6
Procedure: as §1
6 samples of fresh milk containing 0; 4; 6; 8; 10 and 12 ppb of cephapirin, respectively, are prepared. Each of these solutions is then analyzed in the following way.
as §2, with “for 7” for “for 3”
as §3, with “cephapirin” for “cloxacillin”
as §4

[3] = target: T2, BlaR-CTD receptor in the form of a fusion protein with alkaline phosphatase or peroxidase (Bacillus licheniformis, UniProt P12287); test: Example 4: BlaR-CTD fusion protein with alkaline phosphatase or peroxidase, coated tube, milk; format: binding; settings: absorbance at 405 nm, 47° C.
T2 construct: uses the BlaR-CTD receptor in the form of a fusion protein with alkaline phosphatase or peroxidase
T2 sequence (P12287 354-601): as above
Procedure: The test described in this example uses the BlaR-CTD receptor in the form of a fusion protein with alkaline phosphatase or peroxidase, and uses a support in the form of a coated tube.
In this example, polystyrene tubes with high protein absorption of the brand name NUNK (Maxisorp type) are used, which are treated with a reference antibiotic solution as indicated in Example 3.3.2.
7 picomol of recognition agent are incubated in the presence of 500 μl of milk for 5 minutes at 47° C. in an Eppendorf tube. […] The milk is then incubated for 2 minutes at 47° C. After removing the milk, the tube is washed twice with 1 ml of 1 M, pH 9.8 diethanolamine buffer, 0.5 mM MgCl2. […] The absorbance of the supernatant is then measured using a spectrophotometer whose wavelength is set at 405 nm.

[4] = system: protein isolated from an antibiotic-sensitive microorganism, such as Bacillus stearothermophilus; settings: Example 1 of European Patent Application 593 112; cited from earlier work

| Compound | concentration detected in a sample of milk (BlaR-CTD receptor [1]) | concentration detected in a sample of milk (BlaR-CTD receptor [2]) | concentration determined in milk [3] | concentration detected [4] | Intensity 1st band (BlaR-CTD receptor [2]; 4 ppb cephapirin in milk) | Intensity 1st band (BlaR-CTD receptor [2]; 6 ppb cephapirin in milk) | Intensity 1st band (BlaR-CTD receptor [2]; 8 ppb cephapirin in milk) | Intensity 1st band (BlaR-CTD receptor [2]; 10 ppb cephapirin in milk) | Intensity 1st band (BlaR-CTD receptor [2]; 12 ppb cephapirin in milk) |
| --- | --- | --- | --- | --- | --- | --- | --- | --- | --- |
| CC1(C)S[C@@H]2[C@H](NC(=O)Cc3ccccc3)C(=O)N2[C@H]1C(=O)O [penicillin G] | 3 ppb | 3 ppb | less than 5 ppb | ~5 ppb | – | – | – | – | – |
| CO/N=C(\C(=O)N[C@@H]1C(=O)N2C(C(=O)O)=C(CSC(=O)c3ccco3)CS[C@H]12)c1csc(N)n1 [ceftiofur] | 100 ppb | 80 ppb | less than 50 ppb | 5 ppb | – | – | – | – | – |
| CC(=O)OCC1=C(C(=O)O)N2C(=O)[C@@H](NC(=O)CSc3ccncc3)[C@H]2SC1 [cephapirin] | 16 ppb | 6 ppb | less than 20 ppb | 5 ppb | 6 | 5 | 4 | 3 | 3 |
